Assay results taken from ChEMBL document CHEMBL1126639, “Centrally acting serotonergic and dopaminergic agents. 2. Synthesis and structure-activity relationships of 2,3,3a,4,9,9a-hexahydro-1H-benz[f]indole derivatives” (J Med Chem, 1993).

Key:
[1] = system: Mus musculus; assay: Antagonism of apomorphine for 10-20 minutes in reserpinized mice when a dose of 38 micro mol/kg is administered intraperitoneally; format: functional
[2] = system: Mus musculus; assay: Antagonism of apomorphine in reserpinized mice when a dose of 3.8 micro mol/kg is administered intraperitoneally (**,p<0.10); format: functional
[3] = biological target: D(2) dopamine receptor (Homo sapiens, UniProt P14416); assay: Binding affinity against [3H]U-86,170-labeled dopamine receptor D2 in cloned CHO cells; format: cell-based
Chain of D(2) dopamine receptor (Homo sapiens, UniProt P14416) (P14416 whole entry): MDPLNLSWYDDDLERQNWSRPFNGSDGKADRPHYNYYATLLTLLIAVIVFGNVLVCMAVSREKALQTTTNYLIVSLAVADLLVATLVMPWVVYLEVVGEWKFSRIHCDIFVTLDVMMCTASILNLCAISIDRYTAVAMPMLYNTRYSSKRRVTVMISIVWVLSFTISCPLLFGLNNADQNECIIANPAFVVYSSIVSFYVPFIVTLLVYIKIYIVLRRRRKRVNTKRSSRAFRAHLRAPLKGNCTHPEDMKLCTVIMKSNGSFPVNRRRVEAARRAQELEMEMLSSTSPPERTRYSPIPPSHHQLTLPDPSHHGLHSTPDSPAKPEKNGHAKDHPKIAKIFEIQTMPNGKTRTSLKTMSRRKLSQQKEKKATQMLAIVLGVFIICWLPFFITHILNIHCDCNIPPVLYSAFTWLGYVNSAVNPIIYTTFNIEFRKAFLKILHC

[4] = system: Mus musculus; assay: Antagonism of apomorphine in reserpinized mice when a dose of 0.4 micro mol/kg is administered intraperitoneally; format: functional
[5] = system: Mus musculus; assay: Ability to stimulate dopaminergic systems by effect on locomotor activity in reserpinized mice when a dose of 38 micro mol/kg is administered intraperitoneally; format: functional
[6] = system: Mus musculus; assay: Antagonism of apomorphine for 10-20 minutes in reserpinized mice when a dose of 3.8 micro mol/kg is administered intraperitoneally; format: functional
[7] = system: Rattus norvegicus; assay: Inhibition of firing rates of dopaminergic neurons in the substantia nigra pars compacta by intravenous injection in rats.; format: functional
[8] = system: Mus musculus; assay: Antagonism of apomorphine for 10-20 minutes in reserpinized mice when a dose of 0.4 micro mol/kg is administered intraperitoneally; format: functional
[9] = system: Mus musculus; assay: Antagonism of apomorphine for 0-10 minutes in reserpinized mice when a dose of 3.8 micro mol/kg is administered intraperitoneally; format: functional
[10] = system: Mus musculus; assay: Ability to stimulate dopaminergic systems by effect on locomotor activity in reserpinized mice when a dose of 0.4 micro mol/kg is administered intraperitoneally; format: functional
[11] = system: Mus musculus; assay: Antagonism of apomorphine for 0-10 minutes in reserpinized mice when a dose of 0.4 micro mol/kg is administered intraperitoneally; format: functional
[12] = system: Mus musculus; assay: Antagonism of apomorphine for 0-10 minutes in reserpinized mice when a dose of 38 micro mol/kg is administered intraperitoneally; format: functional
[13] = system: Mus musculus; assay: Ability to stimulate dopaminergic systems by effect on locomotor activity in reserpinized mice when a dose of 3.8 micro mol/kg is administered intraperitoneally; format: functional
[14] = system: Mus musculus; assay: Antagonism of apomorphine in reserpinized mice when a dose of 38 micro mol/kg is administered intraperitoneally; format: functional
[15] = biological target: D(2) dopamine receptor (Rattus norvegicus, UniProt P61169); assay: Binding affinity for [3H]raclopride-labeled dopamine receptor D2 in rat striatum; format: tissue-based
Chain of D(2) dopamine receptor (Rattus norvegicus, UniProt P61169) (P61169 whole entry): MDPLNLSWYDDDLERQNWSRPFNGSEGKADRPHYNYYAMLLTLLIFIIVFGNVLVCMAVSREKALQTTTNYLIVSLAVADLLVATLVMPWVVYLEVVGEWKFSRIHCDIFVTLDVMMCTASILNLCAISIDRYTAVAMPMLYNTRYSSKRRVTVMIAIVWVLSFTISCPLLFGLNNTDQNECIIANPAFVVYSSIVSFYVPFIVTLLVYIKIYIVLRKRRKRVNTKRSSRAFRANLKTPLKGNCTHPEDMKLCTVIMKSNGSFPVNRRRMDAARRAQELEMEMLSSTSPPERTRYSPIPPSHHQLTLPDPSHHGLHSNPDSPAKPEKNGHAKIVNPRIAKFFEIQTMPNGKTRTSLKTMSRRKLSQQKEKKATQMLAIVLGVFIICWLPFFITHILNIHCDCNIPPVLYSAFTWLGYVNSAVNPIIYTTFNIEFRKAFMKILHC

[16] = system: Mus musculus; assay: Effective dose on hypothermia in mouse when administered subcutaneously; format: functional; details: Mus musculus, sc; read-out: ED50
[17] = system: Mus musculus; assay: Time of effect in the isolation-induced aggression behavioral assay in the mouse when a dose of 1.1 micro mol/kg is administered intraperitoneally; format: functional
[18] = system: Mus musculus; assay: Maximum decrease in temperature when compound is administered subcutaneously; format: functional
[19] = system: Mus musculus; assay: Time of effect in the isolation-induced aggression behavioral assay in the mouse when a dose of 36 micro mol/kg is administered intraperitoneally (*,p<0.05); format: functional
[20] = system: Mus musculus; assay: Ability to stimulate dopaminergic systems by effect on locomotor activity in reserpinized mice when a dose of 35 micro mol/kg is administered intraperitoneally (*,p<0.05); format: functional
[21] = system: Mus musculus; assay: Antagonism of apomorphine in reserpinized mice when a dose of 35 micro mol/kg is administered intraperitoneally; format: functional
[22] = system: Mus musculus; assay: Maximum decrease in temperature when compound is administered through peroral route; format: functional
[23] = system: Rattus norvegicus; assay: Effect on the synthesis rates of serotonin (5-HTP accumulation) in the rat ventral limbic brain region 3.5 umol/kg; format: functional, Limbic system
[24] = system: Mus musculus; assay: Time of effect in the isolation-induced aggression behavioral assay in the mouse when a dose of 3.5 micro mol/kg is administered intraperitoneally (*,p<0.05); format: functional
[25] = system: Mus musculus; assay: Time of effect in the isolation-induced aggression behavioral assay in the mouse when a dose of 11 micro mol/kg is administered intraperitoneally (*,p<0.05); format: functional
[26] = system: Mus musculus; assay: Effective dose on hypothermia in mouse when administered through peroral route; format: functional; details: Mus musculus, po; read-out: ED50
[27] = system: Rattus norvegicus; assay: Inhibition of firing rates of dopaminergic neurons in the substantia nigra pars compacta by intravenous injection in rats; format: functional
[28] = system: Rattus norvegicus; assay: Effect on the synthesis rates of dopamine (DOPA accumulation) in the rat ventral limbic brain region at 3.5 umol/kg; format: functional, Limbic system
[29] = system: Mus musculus; assay: Antagonism of apomorphine in reserpinized mice when a dose of 3.5 micro mol/kg is administered intraperitoneally; format: functional
[30] = system: Mus musculus; assay: Time of effect in the isolation-induced aggression behavioral assay in the mouse when a dose of 0.0 micro mol/kg is administered intraperitoneally; format: functional
[31] = system: Mus musculus; assay: Time of effect in the isolation-induced aggression behavioral assay in the mouse when a dose of 0.4 micro mol/kg is administered intraperitoneally; format: functional
[32] = system: Mus musculus; assay: Ability to stimulate dopaminergic systems by effect on locomotor activity in reserpinized mice when a dose of 3.5 micro mol/kg is administered intraperitoneally (*,p<0.05); format: functional
[33] = system: Rattus norvegicus; assay: Inhibition of firing rates of serotonergic neurons in the dorsal raphe nucleus by intravenous injection in rats; format: functional; details: Rattus norvegicus, Dorsal raphe nucleus, iv; read-out: ED50
[34] = system: Mus musculus; assay: Antagonism of apomorphine for 0-10 minutes in reserpinized mice when a dose of 3.7 micro mol/kg is administered intraperitoneally; format: functional
[35] = system: Mus musculus; assay: Ability to stimulate dopaminergic systems by effect on locomotor activity in reserpinized mice when a dose of 3.7 micro mol/kg is administered intraperitoneally; format: functional
[36] = system: Mus musculus; assay: Antagonism of apomorphine in reserpinized mice when a dose of 37 micro mol/kg is administered intraperitoneally; format: functional
[37] = species on record: Rattus norvegicus; assay: Effect on the synthesis rates of serotonin (5-HTP accumulation) in the rat ventral limbic brain region […]; format: functional, Limbic system
[38] = system: Mus musculus; assay: Antagonism of apomorphine in reserpinized mice when a dose of 3.7 micro mol/kg is administered intraperitoneally; format: functional
[39] = system: Mus musculus; assay: Antagonism of apomorphine for 10-20 minutes in reserpinized mice when a dose of 3.7 micro mol/kg is administered intraperitoneally; format: functional
[40] = system: Mus musculus; assay: Antagonism of apomorphine for 10-20 minutes in reserpinized mice when a dose of 37 micro mol/kg is administered intraperitoneally; format: functional
[41] = system: Rattus norvegicus; assay: Effect on the synthesis rates of dopamine (DOPA accumulation) in the rat ventral limbic brain region at 3.7 uM/kg.; format: functional, Limbic system
[42] = system: Mus musculus; assay: Antagonism of apomorphine for 0-10 minutes in reserpinized mice when a dose of 37 micro mol/kg is administered intraperitoneally; format: functional
[43] = system: Mus musculus; assay: Ability to stimulate dopaminergic systems by effect on locomotor activity in reserpinized mice when a dose of 37 micro mol/kg is administered intraperitoneally; format: functional

In the case of `C=CCN1CC[C@@H]2Cc3c(O)cccc3C[C@H]21`, the Locomotor activity [1] is reported as 34, the Locomotor activity [2] is reported as 147 and the Ki [3] is reported as 0.3 nM. It also gave a Locomotor activity [4] of 141, a Locomotor activity [5] of 1549 and a Locomotor activity [6] of 29. For the same molecule, the ED50 [7] was 0.002 µmol/kg, the Locomotor activity [8] was 61 and the Locomotor activity [9] was 23. For the same molecule, the Locomotor activity [10] was 1092, the Locomotor activity [11] was 60 and the Locomotor activity [12] was 54. For the same molecule, the Locomotor activity [13] was 1297, the Locomotor activity [14] was 103 and the Ki [15] was 3 nM.
In the case of `CCCN1CC[C@@H]2Cc3c(cccc3OC)C[C@H]21` (racemic), the ED50 [16] is reported as 0.4 µmol/kg, the Time [17] is reported as 134 s and the Max temperature decrease [18] is reported as 6.7. The Time [19] was 450 s, the Ki [3] was 100 nM and the Locomotor activity [20] was 561. For the same molecule, the Locomotor activity [21] was 61, the Locomotor activity [4] was 148 and the Max temperature decrease [22] was 1.4. It also gave a Control [23] of -29%, a Time [24] of 384 s and a Time [25] of 268 s. The ED50 [26] was greater than 355 µmol/kg, the ED50 [27] was 0.66 µmol/kg and the Control [28] was -39%. For the same molecule, the Locomotor activity [29] was 129, the Time [30] was 9 s and the Time [31] was 6 s. For the same molecule, the Locomotor activity [10] was 251, the Locomotor activity [32] was 1168 and the ED50 [33] was 0.07 µmol/kg. It also gave a Ki [15] of 877 nM.
`CCCN1CC[C@@H]2Cc3c(O)cccc3C[C@H]21` gave an ED50 [16] of 0.03 µmol/kg, a Max temperature decrease [18] of 7.5 and a Locomotor activity [34] of 52. The Locomotor activity [35] was 1014, the Ki [3] was 0.5 nM and the Locomotor activity [36] was 43. The Control [37] was -9.5%, the Locomotor activity [4] was 56 and the Locomotor activity [38] was 47. The Locomotor activity [39] was 62, the Max temperature decrease [22] was 10.9 and the Locomotor activity [40] was 53. The Control [41] was -45%, the ED50 [26] was 0.04 µmol/kg and the ED50 [7] was 0.0014 µmol/kg. It also gave a Locomotor activity [42] of 93, a Locomotor activity [10] of 739 and a Locomotor activity [11] of 48. The Locomotor activity [43] was 1625 and the Ki [15] was 2 nM.
